Test results from patent US20150105349A1, “(R)-(-)-1,2-propanediol compositions and methods” (priority 2013, published 2015).
Read-outs that look alike come from different tables or passages of the source. Each block holds one compound with its values, some of them ahead of it.

What was measured:
humans = details: based on intravenous infusion studies; cited from earlier work
rodents = details: oral; cited from earlier work
philtrum skin [1] = assay: philtrum skin cooling bioassay (subjective coolness rating 0-3); format: in vivo, human; details: for Ratio of AUC 75/25% R/S to 25/75% R/S (fold increase in cooling activity): 49% distilled water, 1% ethanol
Source text: The term “alcoholic solvent” refers to a chemical with one to four carbons with at least one hydroxyl group attached to a carbon atom. A reliable place for topical application is the skin above the upper lip (above the vermilion border of the lips), on the philtrum, lateral to the philtrum until the nasolabial folds, and on the lower nostrils (subnasale). This part of the face is known to be densely innervated with cold receptors, second only to the surfaces of the eyeball and anogenitalia. Tingling, cool and cold sensations from the skin may be experienced and rated for time of onset and intensity.
The intervals for recording sensations are 5 to 10 minutes, until two successive zeros are obtained. The results (shown in the Figures) are averaged values of 4 to 6 separate trials in the same individual. The data are plotted using SigmaPlot (Systat Software, Point Richmond, Calif.) and a smoothing function with a negative exponential was used for analysis and statistical fit of the results. The onset of drug action is taken as the time to reach 2 units of coolness intensity, and offset of drug action is the time when coolness intensity drops below 2, after previously surpassing 2 units. […] The duration of cooling action is defined as the offset time minus the onset time and the primary index of effect. As described in Examples, the test compounds were tested at 2 to 10 mg/mL of vehicle.
For assays on the skin, the cooling agent(s) was dissolved in the alcoholic solvent to yield a 2, 2.5, 3, 5 or 10 mg/mL solution. Using a cotton-tipped applicator (e.g. Q-tips®) 0.10 to 0.25 mL of the test solution was applied to the skin above the upper lip, on the philtrum, and lateral to the philtrum up to the nasolabial folds, and the onset and duration of cooling sensations noted. […] The interval for recording sensations was at 5 to 10 minute intervals, until at least two successive zeros were obtained. The results were averaged values of 3 to 6 separate trials in the same individual. The “onset” is the time taken to reach a coolness intensity value of 2. […] The “off-set” is when the coolness intensity drops below 2, and the duration is the time of off-set minus the time of onset. The area under the curve (AUC) gives an estimate of the intensity and duration of drug action and can be obtained from the plotted data using SigmaPlot (Systat Software, Point Richmond, Calif.). The AUC unit is the product of cooling intensity x min.

[2] = test system: dorsal surface of the tongue; details: 6 subjects; 100-fold variation in individual sensitivity; cited from earlier work
[3] = biological target: T1, cloned hTRPM8 channel (human TRPM8 gene, expressed in CHO cells) (Homo sapiens, UniProt Q7Z2W7); assay: agonist activity on cloned hTRPM8 channel, Fluo-8 calcium kit, FLIPR; format: cell-based
T1 construct: host or cells: CHO cells
Experimental: The in vitro effects of test articles were evaluated on cloned hTRPM8 channel (encoded by the human TRPM8 gene, expressed in CHO cells) using a Fluo-8 calcium kit and a Fluorescence Imaging Plate Reader (FLIPR^TETRA™) instrument. […] The total number of carbons in these trialkylphosphine oxides ranged from 12 to 15.
To further examine solvent-receptor interactions, stock solutions of 1-7 [1-(Diisopropyl-phosphinoyl)-heptane] were prepared in dimethyl sulfoxide (DMSO) or DMSO containing 10% or 30% by volume of the three isomers of 1,2-propanediol, (R/S-PD, R-PD, and S-PD) and stored frozen. Six dose levels were tested ranging from 0.003 to 3 μM. Ten μl of the test article solution were added to 40 μl of cells in HBPS in glass-lined 384-well compound plates, and placed into the FLIPR instrument for the fluorescence readout (Molecular Devices Corporation, Union City, Calif.).

[4] = test system: periorbital skin and skin above the cheekbone; assay: cosmetic wipe over periorbital skin and skin above the cheekbone, six female subjects; format: in vivo, human; details: 10 mg/mL in water (50%), 10% (S)-, 40% (R)-1,2-propanediol
Experimental: Six female subjects working at a cosmetics company volunteered to try topical applications of 1-7 and/or 1-8, formulated at 10 mg/mL in water (50%) and 10% (S)-1,2-propanediol, 40% (R)-1,2-propanediol wt/wt. The liquid was put on a cotton square and wiped over the periorbital skin and the skin above the cheekbone. All the subjects remarked on a refreshing coolness on the skin at the sites of application within 2 min after application. There was a “wow” effect, that was considered pleasant and stimulating. […] Four of the six subjects said they felt more “awake and energetic.”

[5] = test system: axillary skin lesion of plaque psoriasis (itch, burning); assay: topical application to axillary plaque psoriasis lesion, one subject; format: in vivo, human; details: 2% in 1% ethanol-99% (R)-1,2-propanediol, swab stick, first application at night
Source text: A person with an 8-year history of plaque psoriasis complained of an axillary skin lesion that itched, had burning sensations, and kept them awake at night. Their condition was severe and chronic. Their parent complained that they had to vacuum their bedroom every day in order to remove flaking skin debris. […] They volunteered to try CPS-148, 2% dissolved in 1% ethanol-99% (R)-1,2-propanediol, and was given instructions on how to apply the solution to their site of itch with a swab stick (Q-tip™). They claimed after the first time of application at night the burning sensations and itch disappeared within 5 to 10 min and they were able to have a good nights sleep. They continued to use the solution on an “as-needed basis” for one month and claimed that they slept much better than before.

[6] = test system: itch (contact dermatitis) on the scalp; assay: topical application to scalp itch (contact dermatitis after hair dye), one individual; format: in vivo, human; details: 5 mg/mL in 1% ethanol-99% (R)-1,2-propanediol, Yorker spout bottle
Experimental: An individual developed intense itch (contact dermatitis) on the scalp at the base of the skull after use of hair dye. A cotton-tipped stick was used to apply CPS-410 or CPS-412, 5 mg/mL dissolved in a 1% ethanol-99% (R)-1,2-propanediol, to the site of itch. The itch sensations were suppressed within 5 min after application of either solution and this effect lasted for at least 8 hr. In a second experiment, the solutions were applied using a plastic bottle with a conical Yorker spout. This allowed more precise droplet delivery of the solution to the site of itch. […] The advantage of liquid formulation is the ease of uniform delivery to the inflamed site, a method not achievable with cream or ointment. Itch symptoms of hair and fur occur in seborrheic dermatitis, psoriasis, insect bites, canine pruritus, and allergic dermatitis. Liquid formulations containing (R)-1,2-propanediol and a cooling agent may be therapeutically valuable in these conditions.

philtrum skin [7] = assay: philtrum skin cooling bioassay (subjective coolness rating 0-3); format: in vivo, human
TRPM8 receptor = TRPM8 receptor (Homo sapiens, UniProt Q7Z2W7); details: cited from earlier work
[8] = 10 mg/mL in (R)-1,2-propanediol
[9] = TRPM8 receptor assay, read-out: EC50 μM (95% C, L.)

T1 sequence (Q7Z2W7 whole entry): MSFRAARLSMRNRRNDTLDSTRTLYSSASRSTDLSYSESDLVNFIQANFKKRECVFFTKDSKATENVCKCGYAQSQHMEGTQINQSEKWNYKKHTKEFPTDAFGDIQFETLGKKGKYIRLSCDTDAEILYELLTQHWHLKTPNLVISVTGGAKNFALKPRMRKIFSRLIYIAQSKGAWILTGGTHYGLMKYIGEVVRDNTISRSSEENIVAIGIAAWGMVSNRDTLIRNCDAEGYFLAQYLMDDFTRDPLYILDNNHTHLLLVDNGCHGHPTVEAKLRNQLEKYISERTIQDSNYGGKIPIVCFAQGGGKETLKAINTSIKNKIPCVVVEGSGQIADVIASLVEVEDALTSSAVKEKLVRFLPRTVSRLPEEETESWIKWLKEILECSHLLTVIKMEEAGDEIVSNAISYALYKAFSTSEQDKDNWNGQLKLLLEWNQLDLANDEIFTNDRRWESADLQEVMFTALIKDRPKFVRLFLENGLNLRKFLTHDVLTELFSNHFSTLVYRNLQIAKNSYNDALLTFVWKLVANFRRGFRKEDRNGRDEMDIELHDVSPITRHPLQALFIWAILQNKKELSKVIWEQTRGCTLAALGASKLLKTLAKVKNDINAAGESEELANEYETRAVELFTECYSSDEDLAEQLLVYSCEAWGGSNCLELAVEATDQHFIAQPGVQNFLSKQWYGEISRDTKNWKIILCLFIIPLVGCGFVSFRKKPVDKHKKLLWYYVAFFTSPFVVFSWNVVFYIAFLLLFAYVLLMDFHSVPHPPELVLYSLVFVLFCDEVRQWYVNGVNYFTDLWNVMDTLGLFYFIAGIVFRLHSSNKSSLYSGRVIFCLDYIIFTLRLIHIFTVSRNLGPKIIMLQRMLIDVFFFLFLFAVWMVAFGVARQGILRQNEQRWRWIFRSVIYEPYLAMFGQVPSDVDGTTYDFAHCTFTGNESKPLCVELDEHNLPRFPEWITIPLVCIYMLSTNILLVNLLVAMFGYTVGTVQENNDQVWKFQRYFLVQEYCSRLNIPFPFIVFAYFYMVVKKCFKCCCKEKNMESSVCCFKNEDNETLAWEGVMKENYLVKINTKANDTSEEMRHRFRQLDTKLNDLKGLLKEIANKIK
Chain of TRPM8 receptor (Q7Z2W7 whole entry): as above

Compound: CC(O)CO (racemic) [racemic 1,2-propanediol]
estimated safe dose (humans): 1 g per kg body weight per day
median lethal dose (rodents): about 25 mL/kg of body weight

Compound: CC(C)[C@@H]1CC[C@@H](C)C[C@H]1O (single isomer, unassigned) [(−)-menthol, reference compound]
cooling duration (philtrum skin [1]; 10 mg/mL in 1,3-propanediol): 13 ± 1 min
cooling duration (philtrum skin [1]; [8]): 21 ± 2 min
average threshold for cooling on tongue (Threshold, μg) [2]: 0.25 µg

Compound: CCCCCP(=O)(C(C)C)C(C)C [1-5]
Ratio of AUC 75/25% R/S to 25/75% R/S (fold increase in cooling activity) (philtrum skin [1]): 1.5
Potency Relative to I-menthol ([3]; TRPM8 receptor assay): 0.7
EC50 [3, 9]: 5.6 µM

Compound: CCCCCCP(=O)(C(C)C)C(C)C [1-6]
Ratio of AUC 75/25% R/S to 25/75% R/S (fold increase in cooling activity) (philtrum skin [1]): 1.7
Potency Relative to I-menthol ([3]; TRPM8 receptor assay): 1.6
EC50 [3, 9]: 2.4 µM

Compound: CCCCCCCP(=O)(C(C)C)C(C)C [1-7, 1-(Diisopropyl-phosphinoyl)-heptane]
irritation or redness on the skin after applications [4]: no irritation or redness
time facial skin felt cool and dry after application ([4]; all subjects): at least one hour
Ratio of AUC 75/25% R/S to 25/75% R/S (fold increase in cooling activity) (philtrum skin [1]): 1.6
ratio of the EC50 for the R versus S enantiomers of 1,2-propanediol ([3]; C.L. overlap): about 2
EC50 ([3]; HBPS, 30% volume series, read-out: EC50 (95% C.L.)): 1.6 µM
Potency Relative to I-menthol ([3]; TRPM8 receptor assay): 5.4
EC50 [3, 9]: 0.7 µM
EC50 ([3]; stock in DMSO containing 30% by volume R-PD, read-out: EC50 (95% C.L.)): 2.2 µM
EC50 ([3]; stock in DMSO containing 30% by volume R/S-PD, read-out: EC50 (95% C.L.)): 2.9 µM
EC50 ([3]; stock in DMSO containing 30% by volume S-PD, read-out: EC50 (95% C.L.)): 4.4 µM

Compound: CCCCCCCCCP(=O)(C(C)C)C(C)C [1-9]
Potency Relative to I-menthol ([3]; TRPM8 receptor assay): 4.0
EC50 [3, 9]: 0.9 µM

Compound: CCCCP(=O)(C(C)CC)C(C)CC (stereo not drawn) [2-4]
Ratio of AUC 75/25% R/S to 25/75% R/S (fold increase in cooling activity) (philtrum skin [1]): 1.9
Potency Relative to I-menthol ([3]; TRPM8 receptor assay): 0.3
EC50 [3, 9]: 14.5 µM

Compound: CCCCCP(=O)(C(C)CC)C(C)CC (stereo not drawn) [2-5]
Ratio of AUC 75/25% R/S to 25/75% R/S (fold increase in cooling activity) (philtrum skin [1]): 1.4
Potency Relative to I-menthol ([3]; TRPM8 receptor assay): 2.2
EC50 [3, 9]: 1.7 µM

Compound: CCCCCCCCP(=O)(C(C)CC)C(C)CC (stereo not drawn) [2-8]
Potency Relative to I-menthol ([3]; TRPM8 receptor assay): 2.9
EC50 [3, 9]: 1.3 µM

Compound: CCOC(=O)[C@@H](C)NC(=O)[C@@H]1C[C@H](C)CC[C@H]1C(C)C [CPS-369, (R)-2-[((1R,2S,5R)-2-isopropyl-5-methyl-cyclohexanecarbonyl)-amino]-propionic acid ethyl ester]
Cooling Activity % (relative to (R)-1,2-propanediol) (philtrum skin [1]; 10 mg/mL in 1,3-propanediol, inactive = did not exceed 2 units of coolness): inactive
Cooling Activity % (relative to (R)-1,2-propanediol) (philtrum skin [1]; [8]): 100%
Cooling Activity % (relative to (R)-1,2-propanediol) (philtrum skin [1]; 10 mg/mL in (S)-1,2-propanediol, based on AUC): 47%
Cooling Activity % (relative to (R)-1,2-propanediol) (philtrum skin [1]; 10 mg/mL in ethanol, inactive = did not exceed 2 units of coolness): inactive
Cooling Activity % (relative to (R)-1,2-propanediol) (philtrum skin [1]; 10 mg/mL in isopropanol, inactive = did not exceed 2 units of coolness): inactive
Cooling Activity % (relative to (R)-1,2-propanediol) (philtrum skin [1]; 10 mg/mL in n-propanol, inactive = did not exceed 2 units of coolness): inactive
Cooling Activity % (relative to (R)-1,2-propanediol) (philtrum skin [1]; 10 mg/mL in racemic 1,3-butanediol): 10%

Compound: CCCOC(=O)[C@@H](C)NC(=O)[C@@H]1C[C@H](C)CC[C@H]1C(C)C [CPS-410, (R)-2-[((1R,2S,5R)-2-isopropyl-5-methyl-cyclohexanecarbonyl)-amino]-propionic acid n-propyl ester]
sensations of coolness after application to scalp [6]: produced sensations of coolness

Compound: CCCCOC(=O)[C@@H](C)NC(=O)[C@@H]1C[C@H](C)CC[C@H]1C(C)C [CPS-412, (R)-2-[((1R,2S,5R)-2-isopropyl-5-methyl-cyclohexanecarbonyl)-amino]-propionic acid n-butyl ester]
sensations of coolness after application to scalp [6]: less noticeable

Compound: CCNC(=O)C1CC(C)CCC1C(C)C (stereo not drawn) [WS-3, 2-Isopropyl-5-methyl-cyclohexanecarboxylic acid ethylamide]
duration of robust cooling (philtrum skin [7]; 20 mg/mL in 97% (R)-1,2-propanediol-3% ethanol, with prickling and stinging sensations): 38 ± 3 min
cooling effect (philtrum skin [7]; 20 mg/mL in absolute ethanol): did not produce significant cooling

Compound: CCOC(=O)CNC(=O)[C@@H]1C[C@H](C)CC[C@H]1C(C)C [WS-5, [((1R,2S,5R)-2-isopropyl-5-methyl-cyclohexanecarbonyl)-amino]-acetic acid ethyl ester, reference compound]
cooling effect (philtrum skin [1]; 10 mg/mL in 100% ethanol): did not produce any cooling effect

Compound: CCO [ethanol]
inhibition of TRPM8 receptor response to (−)-menthol (TRPM8 receptor; 0.5% ethanol in the medium): 50%
TRPM8 receptor response to (−)-menthol (TRPM8 receptor; 3% concentration of ethanol): almost totally lost

Compound: (R)-(−)-1,2-propanediol [(R)-1,2-propanediol]
effect on ethanol inhibition of WS-5 cooling (philtrum skin [1]; added at 10%, 20% and 40% vol/vol to ethanolic solution of WS-5 10 mg/mL): reversed the ethanol inhibition in a dose-dependent relationship

The next lines start with results.

Potency Relative to I-menthol ([3]; TRPM8 receptor assay): 4.7
EC50 [3, 9]: 0.8 µM
Compound: CCCCCCP(=O)(C(C)CC)C(C)CC (stereo not drawn) [CPS-147, 1-(Di-sec-butyl-phosphinoyl)-hexane]
Ratio of AUC 75/25% R/S to 25/75% R/S (fold increase in cooling activity) (philtrum skin [1]): 1.6

agonism at the TRPM8 ion channel [3]: activates TRPM8
Potency Relative to I-menthol ([3]; TRPM8 receptor assay): 3.4
EC50 [3, 9]: 1.1 µM
Compound: CCCCCCCP(=O)(C(C)CC)C(C)CC (stereo not drawn) [CPS-148, 1-(Di-sec-butyl-phosphinoyl)-heptane]
Ratio of AUC 75/25% R/S to 25/75% R/S (fold increase in cooling activity) (philtrum skin [1]): 2.3
time to disappearance of burning sensations and itch [5]: 5 to 10 min
